{"source": "patent US20240287076A1", "about": "“COMPOUNDS FOR TARGETING DEGRADATION OF BRUTON'S TYROSINE KINASE” (BIOGEN MA INC., priority 2021, published 2024)"}
{"biological_target": "T1, BTK (Homo sapiens, UniProt Q06187)", "T1 construct": "The GM01501.3 cell line endogenously expresses BTK with a HiBiT fusion tag via CRISPR knock-in at its C-terminal region; endogenous in cells; host or cells: GM01501.3 (GM01501 cells engineered by CRISPR knock-in of HiBiT at the BTK locus)", "T1 sequence (Q06187 whole entry, the tested form may be a part)": "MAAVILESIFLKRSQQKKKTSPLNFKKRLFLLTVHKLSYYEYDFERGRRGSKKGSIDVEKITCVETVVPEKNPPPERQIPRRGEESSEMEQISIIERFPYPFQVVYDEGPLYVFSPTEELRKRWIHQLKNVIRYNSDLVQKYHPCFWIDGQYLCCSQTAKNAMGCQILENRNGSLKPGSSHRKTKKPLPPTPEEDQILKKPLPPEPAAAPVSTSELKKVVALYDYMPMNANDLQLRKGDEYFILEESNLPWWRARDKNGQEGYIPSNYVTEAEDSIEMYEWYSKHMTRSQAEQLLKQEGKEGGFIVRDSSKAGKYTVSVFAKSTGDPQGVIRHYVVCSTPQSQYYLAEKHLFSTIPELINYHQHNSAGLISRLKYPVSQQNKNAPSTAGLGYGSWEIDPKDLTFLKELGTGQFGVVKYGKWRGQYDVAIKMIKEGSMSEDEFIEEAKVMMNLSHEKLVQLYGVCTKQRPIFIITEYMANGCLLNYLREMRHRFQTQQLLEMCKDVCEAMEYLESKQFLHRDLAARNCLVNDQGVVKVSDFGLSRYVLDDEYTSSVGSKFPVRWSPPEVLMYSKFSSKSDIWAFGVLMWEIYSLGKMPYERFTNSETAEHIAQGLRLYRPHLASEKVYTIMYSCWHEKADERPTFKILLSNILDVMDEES", "assay": "BTK degradation assay using the HiBiT Method (Nano-Glo HiBiT Lytic Assay, GM01501.3 cells)", "type": "cell-based", "conditions": "HiBiT Degradation on GM01501.3 BTK @ 6 hours", "method_in_brief": "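Degradation read-out: HiBiT luminescence after lytic reagent addition, giving DC50. Compounds dosed from 10 μM in 11 half-log steps (duplicate) onto GM01501.3 cells, whose endogenous BTK carries a C-terminal HiBiT knock-in tag; 6 h exposure, 37 °C, 5% CO2.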", "units": {"DC50": "nM"}}
{"smiles": "Cc1cc(-c2ncnn3cc(-c4ccc(CN5CCC(c6ccc(NC7CCC(=O)NC7=O)cc6)CC5)c(F)c4)cc23)ccc1CNC(=O)c1noc(C(C)(C)C)n1", "note": "(centres unmarked) [Example 23, 5-tert-butyl-N-[[4-[6-[4-[[4-[4-[(2,6-dioxo-3-piperidyl)amino]phenyl]-1-piperidyl]methyl]-3-fluoro-phenyl]pyrrolo[2,1-f][1,2,4]triazin-4-yl]-2-methyl-phenyl]methyl]-1,2,4-oxadiazole-3-carboxamide]", "DC50": "< 100"}
{"smiles": "Cc1cc(-c2ncnn3cc(CCN4CCC(c5ccc6c(N7CCC(=O)NC7=O)cnn6c5)CC4)cc23)ccc1CNC(=O)c1noc(C(C)(C)C)n1", "note": "[Example 270, 5-(tert-butyl)-N-(4-(6-(2-(4-(3-(2,4-dioxotetrahydropyrimidin-1(2H)-yl)pyrazolo[1,5-a]pyridin-6-yl)piperidin-1-yl)ethyl)pyrrolo[2,1-f][1,2,4]triazin-4-yl)-2-methylbenzyl)-1,2,4-oxadiazole-3-carboxamide]", "DC50": "< 100"}
{"smiles": "Cc1cc(-c2ncnn3cc(-c4ccc(CN5CCC(c6ccc(NC7CCC(=O)NC7=O)c(F)c6)CC5)cc4)cc23)ccc1CNC(=O)c1noc(C(C)(C)C)n1", "note": "(centres unmarked) [Example 18, 5-tert-butyl-N-[[4-[6-[4-[[4-[4-[(2,6-dioxo-3-piperidyl)amino]-3-fluoro-phenyl]-1-piperidyl]methyl]phenyl]pyrrolo [2,1-f][1,2,4]triazin-4-yl]-2-methyl-phenyl]methyl]-1,2,4-oxadiazole-3-carboxamide]", "DC50": "< 100"}
{"smiles": "CC(C)(C)OC1CN(C(=O)NCc2ccc(-c3ncnn4cc(-c5ccc(CN6CCC(c7ccc(NC8CCC(=O)NC8=O)cc7)CC6)cc5)cc34)cc2F)C1", "note": "(centres unmarked) [Example 99, 3-tert-butoxy-N-[[4-[6-[4-[[4-[4-[(2,6-dioxo-3-piperidyl)amino]phenyl]-1-piperidyl]methyl]phenyl]pyrrolo[2,1-f][1,2,4]triazin-4-yl]-2-fluoro-phenyl]methyl]azetidine-1-carboxamide]", "DC50": "< 100"}
{"smiles": "CC(C)(C)c1nc(C(=O)NCc2ccc(-c3ncnn4cc(CCCCN5CCN(c6ccc(NC7CCC(=O)NC7=O)cn6)CC5)cc34)cc2F)no1", "note": "(centres unmarked) [Example 139, 5-tert-butyl-N-[[4-[6-[4-[4-[5-[(2,6-dioxo-3-piperidyl)amino]-2-pyridyl]piperazin-1-yl]butyl]pyrrolo[2,1-f][1,2,4]triazin-4-yl]-2-fluoro-phenyl]methyl]-1,2,4-oxadiazole-3-carboxamide]", "DC50": "< 100"}
{"smiles": "Cc1cc(-c2ncnn3cc(N4CCN(C(=O)CCCCNC(=O)c5ccc(OC6CCC(=O)NC6=O)cc5)CC4)cc23)ccc1CNC(=O)c1noc(C(C)(C)C)n1", "note": "(centres unmarked) [Example 173, 5-(tert-butyl)-N-(4-(6-(4-(5-(4-((2,6-dioxopiperidin-3-yl)oxy)benzamido)pentanoyl)piperazin-1-yl)pyrrolo[2,1-f][1,2,4]triazin-4-yl)-2-methylbenzyl)-1,2,4-oxadiazole-3-carboxamide]", "DC50": "100 to 500"}
{"smiles": "Cc1cc(-c2ccnc3cc(-c4ccc(CN5CCC(c6ccc(NC7CCC(=O)NC7=O)cc6)CC5)cc4)nn23)ccc1CNC(=O)c1noc(C(C)(C)C)n1", "note": "(centres unmarked) [Example 162, 5-tert-butyl-N-[[4-[2-[4-[[4-[4-[(2,6-dioxo-3-piperidyl)amino]phenyl]-1-piperidyl]methyl]phenyl]pyrazolo[1,5-a]pyrimidin-7-yl]-2-methyl-phenyl]methyl]-1,2,4-oxadiazole-3-carboxamide]", "DC50": "< 100"}
{"smiles": "Cc1cc(-c2ncnn3cc(N4CCN(C(=O)C5(CNC(=O)c6ccc(OC7CCC(=O)NC7=O)cc6)CC5)CC4)cc23)ccc1CNC(=O)c1noc(C(C)(C)C)n1", "note": "(centres unmarked) [Example 174, 5-(tert-butyl)-N-(4-(6-(4-(1-((4-((2,6-dioxopiperidin-3-yl)oxy)benzamido)methyl)cyclopropane-1-carbonyl)piperazin-1-yl)pyrrolo[2,1-f][1,2,4]triazin-4-yl)-2-methylbenzyl)-1,2,4-oxadiazole-3-carboxamide]", "DC50": "< 100"}
{"smiles": "Cc1cc(-c2ncnn3cc(-c4ccc(CN5CCCC(c6ccc(C7CCC(=O)NC7=O)cc6)C5)cc4)cc23)ccc1CNC(=O)c1noc(C(C)(C)C)n1", "note": "(centres unmarked) [Example 8, 5-tert-butyl-N-[[4-[6-[4-[[3-[4-(2,6-dioxo-3-piperidyl)phenyl]-1-piperidyl]methyl]phenyl]pyrrolo[2,1-f][1,2,4]triazin-4-yl]-2-methyl-phenyl]methyl]-1,2,4-oxadiazole-3-carboxamide]", "DC50": "100 to 500"}
{"smiles": "CC(C)(C)c1nc(C(=O)NCc2ccc(-c3ncnn4cc(-c5ccc(CN6CCCC(Cc7ccc(OC8CCC(=O)NC8=O)cc7)C6)cn5)cc34)cc2F)no1", "note": "(centres unmarked) [Example 227, 5-(tert-butyl)-N-(4-(6-(5-((3-(4-((2,6-dioxopiperidin-3-yl)oxy)benzyl)piperidin-1-yl)methyl)pyridin-2-yl)pyrrolo[2,1-f][1,2,4]triazin-4-yl)-2-fluorobenzyl)-1,2,4-oxadiazole-3-carboxamide]", "DC50": "100 to 500"}
{"smiles": "Cc1cc(-c2ncnn3cc(CCCCN4CCC(c5ccc(C6CCC(=O)NC6=O)cc5)CC4)cc23)ccc1CNC(=O)c1noc(C(C)(C)C)n1", "note": "(centres unmarked) [Example 128, 5-tert-butyl-N-[[4-[6-[4-[4-[4-(2,6-dioxo-3-piperidyl)phenyl]-1-piperidyl]butyl]pyrrolo[2,1-f][1,2,4]triazin-4-yl]-2-methyl-phenyl]methyl]-1,2,4-oxadiazole-3-carboxamide]", "DC50": "< 100"}
{"smiles": "Cc1cc(-c2ncnn3cc(-c4ccc(CN5CCC(c6ccc(NC7CCC(=O)NC7=O)cc6)CC5)cc4)cc23)ccc1CNC(=O)c1cccnc1", "note": "(centres unmarked) [Example 90, N-[[4-[6-[4-[[4-[4-[(2,6-dioxo-3-piperidyl)amino]phenyl]-1-piperidyl]methyl]phenyl]pyrrolo[2,1-f][1,2,4]triazin-4-yl]-2-methyl-phenyl]methyl]pyridine-3-carboxamide]", "DC50": "< 100"}
{"smiles": "Cc1cc(-c2ncnn3cc(-c4ccc(CN5CCC(c6ccc(NC7CCC(=O)NC7=O)cc6)CC5)cc4)cc23)ccc1CNC(=O)c1cnc(C(C)C)cn1", "note": "(centres unmarked) [Example 91, N-[[4-[6-[4-[[4-[4-[(2,6-dioxo-3-piperidyl)amino]phenyl]-1-piperidyl]methyl]phenyl]pyrrolo[2,1-f][1,2,4]triazin-4-yl]-2-methyl-phenyl]methyl]-5-isopropyl-pyrazine-2-carboxamide]", "DC50": "< 100"}
{"smiles": "Cc1cc(-c2ncnn3cc(-c4ccc(CN5CCC(c6ccc(NC7CCC(=O)NC7=O)cc6)CC5)cc4)cc23)ccc1CNC(=O)c1ccc(C(C)(F)F)cc1", "note": "(centres unmarked) [Example 72, 4-(1,1-difluoroethyl)-N-[[4-[6-[4-[[4-[4-[(2,6-dioxo-3-piperidyl)amino]phenyl]-1-piperidyl]methyl]phenyl]pyrrolo[2,1-f][1,2,4]triazin-4-yl]-2-methyl-phenyl]methyl]benzamide]", "DC50": "< 100"}
{"smiles": "CC(C)(C)c1nc(C(=O)NCc2ccc(-c3ncnn4cc(-c5ccc(CN6CCC(CCc7ccc(OC8CCC(=O)NC8=O)cc7)CC6)cn5)cc34)cc2F)no1", "note": "(centres unmarked) [Example 239, 5-(tert-butyl)-N-(4-(6-(5-((4-(4-((2,6-dioxopiperidin-3-yl)oxy)phenethyl)piperidin-1-yl)methyl)pyridin-2-yl)pyrrolo [2,1-f][1,2,4]triazin-4-yl)-2-fluorobenzyl)-1,2,4-oxadiazole-3-carboxamide]", "DC50": "< 100"}
{"smiles": "Cc1cc(-c2ncnn3cc(-c4cnn(CCN5CCC(c6ccc7c(C8CCC(=O)NC8=O)nn(C)c7c6)CC5)c4)cc23)ccc1CNC(=O)c1noc(C(C)(C)C)n1", "note": "(centres unmarked) [Example 299, 5-(tert-butyl)-N-(4-(6-(1-(2-(4-(3-(2,6-dioxopiperidin-3-yl)-1-methyl-1H-indazol-6-yl)piperidin-1-yl)ethyl)-1H-pyrazol-4-yl)pyrrolo[2,1-f][1,2,4]triazin-4-yl)-2-methylbenzyl)-1,2,4-oxadiazole-3-carboxamide]", "DC50": "< 100"}
{"smiles": "CC(C)(C)c1nc(C(=O)NCc2ccc(-c3ncnn4cc(-c5ccc(CN6CCCCC6Cc6ccc(OC7CCC(=O)NC7=O)cc6)cn5)cc34)cc2F)no1", "note": "(centres unmarked) [Example 233, 5-(tert-butyl)-N-(4-(6-(5-((2-(4-((2,6-dioxopiperidin-3-yl)oxy)benzyl)piperidin-1-yl)methyl)pyridin-2-yl)pyrrolo [2,1-f][1,2,4]triazin-4-yl)-2-fluorobenzyl)-1,2,4-oxadiazole-3-carboxamide]", "DC50": "< 100"}
{"smiles": "Cc1cc(-c2ncnn3cc(-c4csc(CN5CCC(c6ccc(C7CCC(=O)NC7=O)cc6)CC5)n4)cc23)ccc1CNC(=O)c1noc(C(C)(C)C)n1", "note": "(centres unmarked) [Example 208, 5-(tert-butyl)-N-(4-(6-(2-((4-(4-(2,6-dioxopiperidin-3-yl)phenyl)piperidin-1-yl)methyl)thiazol-4-4-yl)pyrrolo[2,1-f][1,2,4]triazin-4-yl)-2-methylbenzyl)-1,2,4-oxadiazole-3-carboxamide]", "DC50": "< 100"}
{"smiles": "Cc1cc(-c2ncnn3cc(CCN4CCC(c5ccc(NC6CCC(=O)NC6=O)cc5)CC4)cc23)ccc1CNC(=O)c1noc(C(C)(C)C)n1", "note": "(centres unmarked) [Example 117, 5-tert-butyl-N-[[4-[6-[2-[4-[4-[(2,6-dioxo-3-piperidyl)amino]phenyl]-1-piperidyl]ethyl]pyrrolo[2,1-f][1,2,4]triazin-4-yl]-2-methyl-phenyl]methyl]-1,2,4-oxadiazole-3-carboxamide]", "DC50": "< 100"}
{"smiles": "CC(C)(C)c1nc(C(=O)NCc2ccc(-c3ncnn4cc(-c5ccc(CN6CCC(c7ccc(NC8CCC(=O)NC8=O)cc7)CC6)cc5)cc34)cc2F)no1", "note": "(centres unmarked) [Example 44, 5-tert-butyl-N-[[4-[6-[4-[[4-[4-[(2,6-dioxo-3-piperidyl)amino]phenyl]-1-piperidyl]methyl]phenyl]pyrrolo[2,1-f][1,2,4]triazin-4-yl]-2-fluoro-phenyl]methyl]-1,2,4-oxadiazole-3-carboxamide]", "DC50": "< 100"}
